Test results from the NIST ThermoML archive (doi:10.1016/j.fluid.2015.07.030).

How the values were obtained:
[1] = refractive index (other wavelength) (dimensionless); conditions: 95.99 kPa, Liquid, Wavelength=404.7 nm, Standard Abbe refractometry
[2] = Liquid; for mass density: 95.99 kPa, Vibrating tube method; for vapor or sublimation pressure: Ebulliometric method (Recirculating still)
[3] = refractive index (other wavelength) (dimensionless); xn = mol fraction of the nth substance listed; conditions: 95.99 kPa, Liquid, Standard Abbe refractometry, x1 = 1
[4] = xn = mol fraction of the nth substance listed; conditions: 293.15 K; 95.99 kPa; Liquid; Vibrating tube method; x1 = 1

OCCOCCOCCO [triethylene glycol]
Conditions	mass density, [2] [kg/m3]	refractive index, [1]	vapor or sublimation pressure, [2] [kPa]
293.15 K	1123.12	1.45619 [middle of 9 runs]	–
298.15 K	1119.01	1.45447 [middle of 9 runs]	–
303.15 K	1114.79	1.45273 [middle of 9 runs]	–
308.15 K	1110.81	1.45106 [middle of 9 runs]	–
313.15 K	1106.7	1.44927 [middle of 9 runs]	–
535.65 K	–	–	53.33
543.87 K	–	–	66.66
551.33 K	–	–	79.99
559.01 K	–	–	95.99

O [water] + OCCOCCOCCO
refractive index, [3]
Conditions	Wavelength=404.7 nm	Wavelength=435.8 nm	Wavelength=486.1 nm	Wavelength=546.1 nm	Wavelength=587.6 nm	Wavelength=589.3 nm	Wavelength=632.8 nm	Wavelength=644 nm	Wavelength=706.5 nm
293.15 K	1.34287	1.34033	1.33728	–	1.33325	1.332	1.33194	1.33164	1.33018
298.15 K	1.34223	1.33969	1.33606	1.33405	1.33262	1.33257	1.33132	1.33103	1.32956
303.15 K	1.3416	1.33908	1.33606	1.33344	1.33203	1.33198	1.33074	1.33045	1.32898
308.15 K	1.34092	1.33843	1.33538	1.33278	1.33136	1.33131	1.33007	1.32979	1.32834
313.15 K	1.3402	1.3377	1.33466	1.33207	1.33066	1.33061	1.32937	1.32908	1.32764

Conditions	mass density [kg/m3]
[4]	998.27

O [water]
Conditions	refractive index, 293.15 K	refractive index, 298.15 K	refractive index, 303.15 K	refractive index, 308.15 K	refractive index, 313.15 K	vapor or sublimation pressure, 356.16 K [kPa]	vapor or sublimation pressure, 361.89 K [kPa]	vapor or sublimation pressure, 366.73 K [kPa]	vapor or sublimation pressure, 371.71 K [kPa]
[1]	1.33325 [middle of 9 runs]	1.33262 [middle of 9 runs]	1.33203 [middle of 9 runs]	1.33136 [middle of 9 runs]	1.33066 [middle of 9 runs]	–	–	–	–
[2]	–	–	–	–	–	53.33	66.66	79.99	95.99
